In patent publication US20160046618A1, “Cyclopropyl Fused Thiazin-2-Amine Compounds as Beta-Secretase Inhibitors and Methods of Use” (AMGEN INC., priority 2014, published 2016):
Read-outs that look alike come from different tables or passages of the source. Values belong to the compound of their own block, whether it stands above or below them.

Experiments:
[1] = tested on: Aβ40 in conditioned medium of cells stably expressing Amyloid Precursor Protein (APP); test: In vitro BACE-1 cell-based assay (Aβ40 sandwich ELISA); settings: read-out: IC50 IP (μM) BACE1 cell
Protocol: In Vitro BACE-1 Cell-Based Assay
The cell-based assay measures inhibition or reduction of Aβ40 in conditioned medium of test compound treated cells expressing amyloid precursor protein. Cells stably expressing Amyloid Precursor Protein (APP) were plated at a density of 40K cells/well in 96 well plates (Costar). The cells were cultivated for 24 hours at 37° C. and 5% CO2 in DMEM supplemented with 10% FBS. The test compounds were then added to cells in 10-point dose response concentrations with the starting concentration being either 100 μM or 10 μM. The compounds were diluted from stock solutions in DMSO and the final DMSO concentration of the test compounds on cells was 0.1%. After 24 h of incubation with the test compounds the supernatant conditioned media was collected and the Aβ40 levels were determined using a sandwich ELISA. The IC50 of the compound was calculated from the percent of control or percent inhibition of Aβ40 as a function of the concentration of the test compound.
The sandwich ELISA to detect Aβ40 was performed in 96 well microtiter plates, which were pre-treated with goat anti-rabbit IgG (Pierce). The capture and detecting antibody pair that were used to detect Aβ40 from cell supernatants were affinity purified pAb40 (Biosource) and biotinylated 6E10 (Signet Labs Inc.), respectively. The optimal concentration for the pAb40 antibody was 3 μg/ml in Superblock/TBS (Pierce) that was supplemented with 0.05% Tween 20 (Sigma). […] Cellular supernatants were incubated with the capture antibody for 3 h at 4° C., followed by 3 wash steps in TBS-tween (0.05%). The detecting antibody incubation was for 2 h at 4° C., again followed by the wash steps as described previously. The final readout of the ELISA is Time-Resolved Fluorescence (counts per minute) using Delfia reagents Streptavidin-Europium and Enhancement solutions (Perkin Elmer) and the Victor 2 multilabel counter (Perkin Elmer).

human recombinant BACE1 = human recombinant BACE1 (Homo sapiens (Human), UniProt P56817); test: In vitro enzymatic BACE1 FRET assay; type: biochemical; settings: read-out: IC50 IP (μM) BACE1 enzyme
Protocol: (§1) These recombinant proteins were further purified using Ni-NTA affinity chromatography (Qiagen). […] This assay is effectively started by the addition of FRET substrate (50 nM) and the combination is incubated for one hour. The FRET assay is terminated by addition of Tris buffer, which raises the pH to neutrality, and the fluorescence is determined. The FRET substrate is a peptide with commercially available fluorophore and quencher, on opposite sides of the BACE cleavage site. Proteolytic cleavage of the FRET substrate releases quenching of fluorescence (excitation 488 nm and emission 590 nm).

Recombinant Cat D = Recombinant Cat D (Homo sapiens (Human), UniProt P07339); test: In vitro enzymatic Cathepsin D (Cat D) FRET assay; type: biochemical; settings: read-out: IC50 IP (μM) CatD
Protocol: In Vitro Enzymatic Cathepsin D (Cat D) FRET (Fluorescence Resonance Energy Transfer) Assay
Recombinant Cat D was expressed in CHO cells. The assay buffer for CathepsinD is 0.05 M citrate pH 3.5, 10% DMSO final, 5 mM CHAPS. […] The assays are effectively started by the addition of different FRET substrates (20 nM for Cat D) and the combination is incubated for one hour. The FRET assay is terminated with by addition of Tris buffer, which raises the pH to neutrality, and the fluorescence is determined. The FRET substrate is a peptide with commercially available fluorophore and quencher, on opposite sides of the BACE cleavage site. The Cat D substrate peptide sequence is based on sequence #1 of Table 1 from Gulnik et al. FEBS Letters v413 p 379-384 1997. Proteolytic cleavage of the FRET substrate releases quenching of fluorescence (Cat D excitation 500 nm and emission 580 nm).

human recombinant BACE2 = human recombinant BACE2 (Homo sapiens (Human), UniProt Q9Y5Z0); test: In vitro enzymatic BACE2 FRET assay; type: biochemical; settings: read-out: IC50 IP (μM) BACE2 enzyme
Protocol: as §1

Sequence of human recombinant BACE1 (P56817 46-501): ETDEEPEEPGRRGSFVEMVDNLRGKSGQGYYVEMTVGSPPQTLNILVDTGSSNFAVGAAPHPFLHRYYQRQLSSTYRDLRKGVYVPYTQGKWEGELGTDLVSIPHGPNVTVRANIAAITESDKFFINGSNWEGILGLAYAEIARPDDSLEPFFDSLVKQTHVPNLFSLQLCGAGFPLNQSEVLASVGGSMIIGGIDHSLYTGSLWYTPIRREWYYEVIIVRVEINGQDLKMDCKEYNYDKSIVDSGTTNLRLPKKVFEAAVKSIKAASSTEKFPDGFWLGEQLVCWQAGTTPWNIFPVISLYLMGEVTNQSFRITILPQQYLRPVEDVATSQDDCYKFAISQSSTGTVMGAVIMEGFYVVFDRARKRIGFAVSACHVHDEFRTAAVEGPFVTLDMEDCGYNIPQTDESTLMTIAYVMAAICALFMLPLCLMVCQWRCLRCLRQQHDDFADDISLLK
Sequence of human recombinant BACE2 (Q9Y5Z0 63-518): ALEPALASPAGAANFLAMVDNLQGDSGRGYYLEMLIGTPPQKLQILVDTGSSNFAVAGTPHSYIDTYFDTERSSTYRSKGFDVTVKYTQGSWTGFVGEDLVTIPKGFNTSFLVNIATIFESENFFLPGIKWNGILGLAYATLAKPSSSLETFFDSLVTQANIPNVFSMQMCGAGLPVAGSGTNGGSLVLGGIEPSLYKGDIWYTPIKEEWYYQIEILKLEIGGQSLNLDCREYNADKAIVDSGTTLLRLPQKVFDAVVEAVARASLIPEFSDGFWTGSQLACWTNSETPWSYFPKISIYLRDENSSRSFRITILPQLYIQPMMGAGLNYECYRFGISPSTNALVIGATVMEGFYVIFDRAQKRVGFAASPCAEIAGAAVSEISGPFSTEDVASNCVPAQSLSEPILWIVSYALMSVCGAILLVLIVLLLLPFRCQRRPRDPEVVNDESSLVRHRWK
Sequence of Recombinant Cat D (P07339 65-412): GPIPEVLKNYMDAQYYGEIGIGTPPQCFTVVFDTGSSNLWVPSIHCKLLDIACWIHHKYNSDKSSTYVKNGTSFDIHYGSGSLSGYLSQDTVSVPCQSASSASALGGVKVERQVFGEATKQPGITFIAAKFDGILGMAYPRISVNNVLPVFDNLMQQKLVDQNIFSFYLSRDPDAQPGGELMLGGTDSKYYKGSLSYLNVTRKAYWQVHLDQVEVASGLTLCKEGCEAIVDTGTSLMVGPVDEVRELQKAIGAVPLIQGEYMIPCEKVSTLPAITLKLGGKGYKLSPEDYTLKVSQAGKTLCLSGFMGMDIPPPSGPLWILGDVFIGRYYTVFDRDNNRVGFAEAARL

Structure (SMILES): NC1=N[C@](CF)(c2cc(NC(=O)c3ccc(Cl)cn3)ccc2F)[C@@H]2[C@H]3CSC[C@]32S1 (mixture of isomers) [Example 752, N-(3-((4S,4aR,7aS)-2-amino-4-(fluoromethyl)-4a,4b,5,7-tetrahydro-4H-thieno[3′,4′:2,3]cyclopropa[1,2-e][1,3]thiazin-4-yl)-4-fluorophenyl)-5-chloropicolinamide and N-(3-((4S,4aS,7aR)-2-amino-4-(fluoromethyl)-4a,4b,5,7-tetrahydro-4H-thieno[3′,4′:2,3]cyclopropa[1,2-e][1,3]thiazin-4-yl)-4-fluorophenyl)-5-chloropicolinamide]
IC50 [1]: 0.0522 µM
IC50 (human recombinant BACE1): 0.0068 µM
IC50 (Recombinant Cat D): 26.4 µM
IC50 (human recombinant BACE2): 0.00709 µM

Structure (SMILES): NC1=N[C@](CF)(c2cc(Nc3nncc4cc(Br)cnc34)ccc2F)C2C[C@@H]2S1 (stereo in doubt) [Example 67, N-(3-((1S,5S,6S)-3-amino-5-(fluoromethyl)-2-thia-4-azabicyclo[4.1.0]hept-3-en-5-yl)-4-fluorophenyl)-3-bromopyrido[2,3-d]pyridazin-8-amine]
IC50 ([1]; BACE1 cell-based assay): 0.0208 µM
IC50 (human recombinant BACE1; BACE1 FRET enzyme assay): 0.0137 µM
IC50 (Recombinant Cat D; Cathepsin D FRET enzyme assay): 738 µM
IC50 (human recombinant BACE2; BACE2 FRET enzyme assay): 0.00616 µM

Structure (SMILES): NC1=N[C@](CF)(c2cc(Nc3nccc4nc(C(F)(F)F)cnc34)ccc2F)C2C[C@@H]2S1 (stereo in doubt) [Example 87, N-(3-((1S,5S,6S)-3-amino-5-(fluoromethyl)-2-thia-4-azabicyclo[4.1.0]hept-3-en-5-yl)-4-fluorophenyl)-2-(trifluoromethyl)pyrido[3,4-b]pyrazin-5-amine]
IC50 ([1]; BACE1 cell-based assay): 22.6 µM
IC50 (human recombinant BACE1; BACE1 FRET enzyme assay): 0.114 µM
IC50 (Recombinant Cat D; Cathepsin D FRET enzyme assay): 2810 µM
IC50 (human recombinant BACE2; BACE2 FRET enzyme assay): 0.271 µM

Structure (SMILES): COc1cnc2c(Nc3ccc(F)c([C@@]4(CF)N=C(N)S[C@H]5CC54)c3)ncnc2c1 (stereo in doubt) [Example 88, N-(3-((1S,5S,6S)-3-amino-5-(fluoromethyl)-2-thia-4-azabicyclo[4.1.0]hept-3-en-5-yl)-4-fluorophenyl)-7-methoxypyrido[3,2-d]pyrimidin-4-amine]
IC50 ([1]; BACE1 cell-based assay): 0.0264 µM
IC50 (human recombinant BACE1; BACE1 FRET enzyme assay): 0.0416 µM
IC50 (Recombinant Cat D; Cathepsin D FRET enzyme assay): > 400 µM
IC50 (human recombinant BACE2; BACE2 FRET enzyme assay): 0.137 µM

Structure (SMILES): Cc1cc(C#N)cnc1C(=O)Nc1ccc(F)c([C@@]2(CF)N=C(N)S[C@H]3C[C@H]32)c1 [Example 3, N-(3-((1S,5S,6S)-3-amino-5-(fluoromethyl)-2-thia-4-azabicyclo[4.1.0]hept-3-en-5-yl)-4-fluorophenyl)-5-cyano-3-methylpicolinamide]
IC50 ([1]; BACE1 cell-based assay): 0.00522 µM
IC50 (human recombinant BACE1; BACE1 FRET enzyme assay): 0.00838 µM
IC50 (Recombinant Cat D; Cathepsin D FRET enzyme assay): 437 µM
IC50 (human recombinant BACE2; BACE2 FRET enzyme assay): 0.0108 µM

Structure (SMILES): COC[C@]12C[C@H]1[C@@](C)(c1cc(Nc3nccc4cc(Cl)cnc34)cc(F)c1F)N=C(N)S2 [Example 24, N-(3-((1S,5S,6S)-3-amino-1-(methoxymethyl)-5-methyl-2-thia-4-azabicyclo[4.1.0]hept-3-en-5-yl)-4,5-difluorophenyl)-3-chloro-1,7-naphthyridin-8-amine]
IC50 ([1]; BACE1 cell-based assay): 0.0191 µM
IC50 (human recombinant BACE1; BACE1 FRET enzyme assay): 0.00188 µM
IC50 (Recombinant Cat D; Cathepsin D FRET enzyme assay): 189 µM

Structure (SMILES): CCOC(=O)[C@]12C[C@H]1[C@@](C)(c1cc(Nc3nccc4cc(Cl)cnc34)cc(F)c1F)N=C(N)S2 [Example 25, (1S,5S,6S)-ethyl 3-amino-5-(5-((3-chloro-1,7-naphthyridin-8-yl)amino)-2,3-difluorophenyl)-5-methyl-2-thia-4-azabicyclo[4.1.0]hept-3-ene-1-carboxylate]
IC50 ([1]; BACE1 cell-based assay): 0.571 µM
IC50 (human recombinant BACE1; BACE1 FRET enzyme assay): 0.0025 µM
IC50 (Recombinant Cat D; Cathepsin D FRET enzyme assay): 48.7 µM

Structure (SMILES): N#Cc1cnc2c(Nc3cc(F)c(F)c([C@@]4(CF)N=C(N)S[C@@H]5C[C@@H]54)c3)nccc2c1 [Example 27, 8-((3-((1R,5S,6R)-3-amino-5-(fluoromethyl)-2-thia-4-azabicyclo[4.1.0]hept-3-en-5-yl)-4,5-difluorophenyl)amino)-1,7-naphthyridine-3-carbonitrile]
IC50 ([1]; BACE1 cell-based assay): 0.013 µM
IC50 (human recombinant BACE1; BACE1 FRET enzyme assay): 0.0235 µM
IC50 (Recombinant Cat D; Cathepsin D FRET enzyme assay): 33.5 µM

Structure (SMILES): C[C@]1(c2cc(Nc3nccc4cc(Cl)cnc34)cc(F)c2F)N=C(N)S[C@@]2(CO)C[C@H]21 [Example 30, ((1S,5S,6S)-3-amino-5-(5-((3-chloro-1,7-naphthyridin-8-yl)amino)-2,3-difluorophenyl)-5-methyl-2-thia-4-azabicyclo[4.1.0]hept-3-en-1-yl)methanol]
IC50 ([1]; BACE1 cell-based assay): 0.00851 µM
IC50 (human recombinant BACE1; BACE1 FRET enzyme assay): 0.00152 µM
IC50 (Recombinant Cat D; Cathepsin D FRET enzyme assay): 958 µM
IC50 (human recombinant BACE2; BACE2 FRET enzyme assay): < 0.00203 µM

Structure (SMILES): NC1=N[C@](CF)(c2cc(NC(=O)c3ccc(Cl)cn3)cc(F)c2F)[C@@H]2C[C@]2(CO)S1 [Example 31, N-(3-((1S,5S,6S)-3-amino-5-(fluoromethyl)-1-(hydroxymethyl)-2-thia-4-azabicyclo[4.1.0]hept-3-en-5-yl)-4,5-difluorophenyl)-5-chloropicolinamide]
IC50 ([1]; BACE1 cell-based assay): 0.00226 µM
IC50 (human recombinant BACE1; BACE1 FRET enzyme assay): 0.00206 µM
IC50 (Recombinant Cat D; Cathepsin D FRET enzyme assay): 1400 µM
IC50 (human recombinant BACE2; BACE2 FRET enzyme assay): 0.00109 µM

Structure (SMILES): C#CCOc1cnc2c(Nc3cc(F)c(F)c([C@@]4(C)N=C(N)S[C@H]5C[C@H]54)c3)nccc2c1 [Example 32, N-(3-((1S,5S,6S)-3-amino-5-methyl-2-thia-4-azabicyclo[4.1.0]hept-3-en-5-yl)-4,5-difluorophenyl)-3-(2-propyn-1-yloxy)-1,7-naphthyridin-8-amine]
IC50 ([1]; BACE1 cell-based assay): 0.0836 µM
IC50 (human recombinant BACE1; BACE1 FRET enzyme assay): 0.0212 µM
IC50 (Recombinant Cat D; Cathepsin D FRET enzyme assay): 138 µM
IC50 (human recombinant BACE2; BACE2 FRET enzyme assay): 0.304 µM

Now from value to compound:

IC50 [1]: 0.12 µM
IC50 (human recombinant BACE1): 0.129 µM
IC50 (Recombinant Cat D): > 400 µM
IC50 (human recombinant BACE2): 1.1 µM
Structure (SMILES): COC[C@]12C[C@H]1[C@@](C)(c1cc(NC(=O)c3cnc(OC(C)C(F)(F)F)cn3)ccc1F)N=C(N)S2 (mixture of isomers) [Example 968, N-(3-((1S,5S,6S)-3-amino-1-(methoxymethyl)-5-methyl-2-thia-4-azabicyclo[4.1.0]hept-3-en-5-yl)-4-fluorophenyl)-5-((1,1,1-trifluoropropan-2-yl)oxy)pyrazine-2-carboxamide]

IC50 [1]: 0.035 µM
IC50 (human recombinant BACE1): 0.033 µM
IC50 (Recombinant Cat D): > 400 µM
IC50 (human recombinant BACE2): 0.345 µM
Structure (SMILES): C=C[C@@H](C)Oc1cnc(C(=O)Nc2ccc(F)c([C@@]3(C)N=C(N)S[C@@]4(COC)C[C@H]43)c2)cn1 (mixture of isomers) [Example 1051, N-(3-((1S,5S,6S)-3-amino-1-(methoxymethyl)-5-methyl-2-thia-4-azabicyclo[4.1.0]hept-3-en-5-yl)-4-fluorophenyl)-5-(((1R)-1-methyl-2-propen-1-yl)oxy)-2-pyrazinecarboxamide, N-(3-((1S,5S,6S)-3-amino-1-(methoxymethyl)-5-methyl-2-thia-4-azabicyclo[4.1.0]hept-3-en-5-yl)-4-fluorophenyl)-5-(((1S)-1-methyl-2-propen-1-yl)oxy)-2-pyrazinecarboxamide]

IC50 [1]: 0.164 µM
IC50 (human recombinant BACE1): 0.101 µM
IC50 (Recombinant Cat D): 1940 µM
IC50 (human recombinant BACE2): 1.77 µM
Structure (SMILES): COC[C@]12C[C@H]1[C@@](C)(c1cc(NC(=O)c3cnc(O[C@@H](C)C(F)(F)F)cn3)ccc1F)N=C(N)S2 (single isomer, unassigned) [Example 995]

IC50 [1]: 0.12 µM
IC50 (human recombinant BACE1): 0.123 µM
IC50 (Recombinant Cat D): 1640 µM
IC50 (human recombinant BACE2): 0.807 µM
Structure (SMILES): COC[C@]12C[C@H]1[C@@](C)(c1cc(NC(=O)c3cnc(O[C@H](C)C(F)(F)F)cn3)ccc1F)N=C(N)S2 (single isomer, unassigned) [Example 996]

IC50 [1]: 0.0095 µM
IC50 (human recombinant BACE1): 0.0078 µM
IC50 (human recombinant BACE2): 0.152 µM
Structure (SMILES): C#CCCOc1cnc(C(=O)Nc2ccc(F)c([C@@]3(C)N=C(N)S[C@@]4(COC)C[C@H]43)c2)cn1 [Example 1048, N-(3-((1S,5S,6S)-3-amino-1-(methoxymethyl)-5-methyl-2-thia-4-azabicyclo[4.1.0]hept-3-en-5-yl)-4-fluorophenyl)-5-(3-butyn-1-yloxy)-2-pyrazinecarboxamide]
